Experimental data from patent US10513519B2, “Solid forms of (1S,4S)-4-(2-(((3S,4R)-3-fluorotetrahydro-2H-pyran-4-yl)amino)-8-((2,4,6-trichlorophenyl)amino)-9H-purin-9-yl)-1-methylcyclohexane-1-carboxamide and methods of their use” (Signal Pharmaceuticals, LLC, priority 2016, dated 2019).

Columns and labels:
[1] = test system: LOX-IMVI xenograft; experiment: LOX-IMVI subcutaneous melanoma xenograft model; assay type: in vivo, SCID mice
Description: (§1) For xenograft model studies human cancer cell lines were injected into SCID (severe combined immunodeficiency) mice. Cancer cell lines were propagated in culture in vitro. Tumor bearing animals were generated by injecting precisely determined numbers of cells into mice. Following inoculation of animals, the tumors were allowed to grow to a certain size prior to randomization. The mice bearing xenograft tumors ranging between pre-determined sizes were pooled together and randomized into various treatment groups. A typical efficacy study design involved administering one or more compounds at various dose levels to tumor-bearing mice. Additionally, reference chemotherapeutic agents (positive control) and negative controls were similarly administered and maintained. Tumor measurements and body weights were taken over the course of the study.
Mice were anesthetized with inhaled isoflurane and then inoculated with LOX-IMVI tumor cells subcutaneously above the right hind leg with 0.1 mL of a single cell suspension in PBS using a sterile 1 mL syringe fitted with a 26-gauge needle. Following inoculation of the animals, tumors were allowed to grow to approximately 75-125 mm^3 or in some cases 250-400 mm^3 prior to randomization of the mice. The tumor of each animal was measured and animals with tumors in the appropriate range were included in the study. Animals from the study pool were then distributed randomly into various cages and the cages were randomly assigned to vehicle, positive control, or test article groups. All of the mice were tagged with metal ear tags on the right ear. A typical group consisted of 8-10 animals. For a typical xenograft study, SCID mice bearing tumors were randomized and dosed with compounds ranging from, for example, 100 mg/kg to 0.1 mg/kg with different dose scheduling, including, but not limited to, qd, q2d, q3d, q5d, q7d and bid. The mice were dosed for 1-4 weeks. Tumors were measured twice a week using calipers and tumor volumes were calculated using the formula of W^2×L/2.
The purpose of this study was to confirm the efficacy of Compound 1 in the LOX-IMVI melanoma xenograft model.
In a separate experiment, Compound 1 was administered orally, QD for 8 days at 0.2, 1, 5, 10, and 15 mg/kg.

[2] = test system: Colo 205 xenograft; experiment: Colo 205 subcutaneous colorectal xenograft model; assay type: in vivo, SCID mice
Description: as §1
In the first experiment Compound 1 was administered orally, QD for 15 days at 0.2, 1, 5, 10, and 15 mg/kg.

[3] = test system: PDX146 xenograft; experiment: PDX1994060146 (PDX146) subcutaneous colorectal patient-derived xenograft model; assay type: in vivo, NSG mice
Description: A time to progression (TTP) study was performed to determine the effect of longer treatment duration on tumor growth.
In the first experiment Compound 1 was administered orally, QD at 1, 5, and 15 mg/kg or 5 and 15 mg/kg BID for 22 days.
In the TTP study, Compound 1 was administered orally, 1, 5, and 15 mg/kg BID for 49-77 days. Compound 1 treatment groups were dosed throughout the duration of the study until the group mean reached the predetermined endpoint of approximately 1200 mm^3 or study termination. Tumor growth delay (TGD) was calculated as the time between the termination of the vehicle control group (on day 43) and the Compound 1 treatment groups. The TGD was 8, 12 and >37 days for the 1, 5 and 15 mg/kg treatment groups, respectively.

## C[C@]1(C(N)=O)CC[C@@H](n2c(Nc3c(Cl)cc(Cl)cc3Cl)nc3cnc(N[C@@H]4CCOC[C@H]4F)nc32)CC1 [Compound 1, cis-4-[2-{[(3S,4R)-3-fluorooxan-4-yl]amino}-8-(2,4,6-trichloroanilino)-9H-purin-9-yl]-1-methylcyclohexane-1-carboxamide]
[1]; 10 and 15 mg/kg, orally, QD for 8 days
  tumor regression: Tumor regression was observed
[1]; 15 and 30 mg/kg, both dose levels
  animals with tumor regression: 9 out of 9
[1]; 15 and 30 mg/kg, each group
  animals tumor free at study end: 1 out of 9
[1]; 15 and 30 mg/kg, p<0.001 for both dose levels
  tumor volume compared to the vehicle control: significant tumor volume reduction
[1]; orally, QD for 8 days at 0.2, 1, 5, 10, and 15 mg/kg
  antitumor activity: Dose-dependent antitumor activity
[2]; orally, QD for 15 days at 0.2, 1, 5, 10, and 15 mg/kg
  antitumor activity: Dose-dependent antitumor activity
[2]; scheduling study (BID dosing)
  antitumor activity: Dose-dependent antitumor activity
[3]; 22 days
  antitumor activity of 15 mg/kg BID compared to 15 mg/kg QD: appeared to increase the antitumor activity
[3]; orally, QD at 1, 5, and 15 mg/kg or 5 and 15 mg/kg BID for 22 days
  antitumor activity: Dose-dependent antitumor activity
